Patent publication US5672594A, “L-erythrosyl nucleosides” (Genencor International, Inc., priority 1994, dated 1997)
Converted amounts (≈) assume the structure as drawn. Like-named read-outs stand apart in the source and are kept apart here.

Key:
[1] = In vitro growth inhibition/survival, bone marrow control cells (radiometric BACTEC); type: cell-based; settings: human, continuous exposure (10, 1 and 0.1 μg/ml tested; concentration of this value not given)
Description: (§1) CELL LINES: Eight different established human cell lines CALU (lung), COLO320 (colon), H578St (breast), HT-29 (colon), MCF-7 (breast), OM-1 (colon), SKLU (lung) and SKMES (lung), and two control cell lines (bone marrow andr fibroblasts) were utilized.
(§2) All cell lines were obtained from the Tumor Cloning Laboratory, Institute for Drug Development, Cancer Therapy and Research Center, San Antonio, Tex. All cell lines grew as monolayers in the appropriate culture medium supplemented with heat-inactivated calf serum. All reagents were obtained from Grand Island Biological Co., Grand Island, N.Y.
(§3) The iv formulations of the compounds of the present invention were prepared with sterile buffered saline and stored at -70° C. until required for testing.
(§4) Following trypsinization, tumor cells were suspended in tissue culture medium and exposed to the antitumor agents continuously at three different concentrations: 10, 1 and 0.1 μg/ml.
(§5) RADIOMETRIC MEASUREMENT OF GROWTH INHIBITION: Growth inhibition was assessed with the BACTEC System 460 (Johnston Laboratories, Towson, Md.) after addition of the antitumor agent in the respective growth medium containing ^14 C-glucose at a final concentration of 2 μCi/ml.
Two mls of the tumor cell suspension containing radioactive glucose were seeded into sterile, disposable 15 ml vials by injection through self-sealing rubber-aluminum caps. […]

[2] = tested on: CALU (lung); test: In vitro growth inhibition of CALU tumor cells (radiometric BACTEC); type: cell-based, human; settings: for IC50: Homo sapiens
Description: as §1, §2, §3, §4, §5
(§6) Two mls of the tumor cell suspension containing radioactive glucose were seeded into sterile, disposable 15 ml vials by injection through self-sealing rubber-aluminum caps. […] The seeded vials were then incubated at 37° C. Measurement of the release of ^14 CO2 resulting from the metabolism of ^14 C-glucose were performed on days 6, 9, 12, and 15 in the BACTEC instrument. This instrument flushes the ^14 CO2 containing air out of the vials into an ionization chamber that converts dpm to growth index values. […] Each data point represents triplicate values.
(§7) All compounds were dosed on an equimilimolar basis. […] [formula]

[3] = tested on: COLO320 (colon); test: In vitro growth inhibition of COLO320 tumor cells (radiometric BACTEC); type: cell-based; settings: Homo sapiens, COLO 320, concentration required to kill 50% of the untreated cancer cells
Description: as §1
as §2, with “N.Y. […]” for “N.Y.”
(§8) RADIOMETRIC MEASUREMENT OF GROWTH INHIBITION: Growth inhibition was assessed with the BACTEC System 460 (Johnston Laboratories, Towson, Md.) after addition of the antitumor agent in the respective growth medium containing ^14 C-glucose at a final concentration of 2 μCi/ml. […]
(§9) Two mls of the tumor cell suspension containing radioactive glucose were seeded into sterile, disposable 15 ml vials by injection through self-sealing rubber-aluminum caps. […] Chemotherapy sensitivity was calculated by comparing the growth index values of drug-treated vials to that observed in control vials. […]
(§10) The data presented in Table I are compared to results achieved with 5-FU as the control. […] In this regard, a therapeutic ratio for a given compound is typically determined by the following calculation. […]

[4] = tested on: HS578T (breast); test: In vitro growth inhibition of HS578T tumor cells (radiometric BACTEC); type: cell-based; settings: Homo sapiens, Hs-578T, concentration required to kill 50% of the untreated cancer cells
Description: as §1
as §2, with “N.Y. […]” for “N.Y.”
as §8, §9, §10

[5] = tested on: HT29 (colon); test: In vitro growth inhibition of HT29 tumor cells (radiometric BACTEC); type: cell-based; settings: Homo sapiens, HT-29, concentration required to kill 50% of the untreated cancer cells
Description: as §1
as §2, with “N.Y. […]” for “N.Y.”
as §8, §9, §10

[6] = tested on: MCF-7 (breast); test: In vitro growth inhibition of MCF-7 tumor cells (radiometric BACTEC); type: cell-based, human; settings: for IC50: Homo sapiens, MCF7
Description: as §1, §2, §3, §4, §5, §6, §7

[7] = tested on: OM-1 (colon); test: In vitro growth inhibition of OM-1 tumor cells (radiometric BACTEC); type: cell-based; settings: Homo sapiens, concentration required to kill 50% of the untreated cancer cells
Description: as §1
as §2, with “N.Y. […]” for “N.Y.”
as §8, §9, §10

[8] = tested on: SKLU (lung); test: In vitro growth inhibition of SKLU tumor cells (radiometric BACTEC); type: cell-based; settings: Homo sapiens, concentration required to kill 50% of the untreated cancer cells
Description: as §1
as §2, with “N.Y. […]” for “N.Y.”
as §8, §9, §10

[9] = tested on: SKMES (lung); test: In vitro growth inhibition of SKMES tumor cells (radiometric BACTEC); type: cell-based, human; settings: for IC50: Homo sapiens
Description: as §1, §2, §3, §4, §5, §6, §7

[10] = known drug, background; cited from earlier work

Row | SMILES | viability [1] [%] | IC50 [2] [µg/mL] | IC50 [3] [µg/mL] | IC50 [4] [µg/mL] | IC50 [5] [µg/mL] | IC50 [6] [µg/mL] | IC50 [7] [µg/mL] | IC50 [8] [µg/mL] | IC50 [9] [µg/mL] | side effects [10] | % SURVIVAL TUMOR ([2]; CALU, continuous exposure (10, 1 and 0.1 μg/ml tested; concentration of this value not given)) [%] | IC50 ([2]; CALU, concentration required to kill 50% of the untreated cancer cells, read-out: IC 50) [µg/mL] | IC50 ([6]; MCF-7, concentration required to kill 50% of the untreated cancer cells, read-out: IC 50) [µg/mL] | % SURVIVAL TUMOR ([6]; MCF-7, continuous exposure, concentration of this value not given) [%] | IC50 ([9]; SKMES, concentration required to kill 50% of the untreated cancer cells, read-out: IC 50) [µg/mL] | % SURVIVAL TUMOR ([9]; SKMES, continuous exposure, concentration of this value not given) [%]
1 | O=c1[nH]cc(F)c(=O)[nH]1 [5-FU, 5-fluorouracil] | 38.6 | < 0.6 | < 0.6 | > 0.6 | 0.613 (≈ 4.71 µM) | < 0.6 | 1.47 (≈ 11.3 µM) | 1.05 (≈ 8.06 µM) | < 0.6 | nausea, vomiting, diarrhea, leukopenia, thrombocytopenia, alopecia | – | – | – | – | – | –
2 | O=c1[nH]c(=O)n([C@@H]2OC[C@H](O)[C@@H]2O)cc1F [α-L-erythrofuranosyl-5-fluorouracil] | 104 | – | – | – | – | – | – | – | – | – | 85.3 | > 10 | > 10 | 52.7 | > 10 | 67.4
